Consider 14 compounds from patent US10308643B2, “Heterocyclic compound” (Takeda Pharmaceutical Company Limited, priority 2015, dated 2019).

Holding throughout (format): biochemical
One assay has as its target T1, HDAC9 enzyme (Homo sapiens, UniProt Q9UKV0).
T1 construct: transducing full length HDAC9 gene into Sf-9 insect cells; made in house; host or cells: Sf-9 insect cells
Kind of assay: HDAC9 Enzyme Inhibitory Assay (HDAC-Glo class IIa). The conditions noted are these: 1 μM test compound, wells without enzyme = 100% inhibition; for inhibition at 1 µM: read-out: HDAC9 inhibitory rate (%) (1 μM). The method, then: HDAC9 Enzyme Inhibitory Assay
Enzyme was prepared by transducing full length HDAC9 gene into Sf-9 insect cells and purifying by Ni-NTA affinity column, and HDAC9 enzyme inhibitory activity was evaluated. Enzymes were used after preserved at −70° C. HDAC9 enzyme inhibitory activity of the test compound was measured using HDAC-Glo class IIa (Promega) according to the following experimental method. The test compound diluted with assay buffer (24 mM Tris-HCl (pH 7.5), 1 mM MgCl2, 0.35 mM KCl, 135 mM NaCl, 0.6 mM Glutathione, 0.01% Tween-20) was added to a 384-well plate by each 2 μL. Then, HDAC9 enzyme solution diluted with assay buffer was added thereto by each 2 μL, and the plate was incubated at room temperature for 60 min. After incubated, HDAC substrate-Developer solution prepared according to Promega protocol was added to the 384-well plate by each 4 μL, and the enzyme reaction was started. After reacting at room temperature for 20 min, luminescence level was measured using plate reader Envision (PerkinElmer). The inhibitory activity of each compound was calculated as a relative activity value when luminescence level in wells without enzyme is considered as 100% inhibition.

Another assay deals with T2, HDAC1 enzyme (Homo sapiens, UniProt Q13547).
T2 construct: transducing full length HDAC1 and HDAC6 genes into Sf-9 insect cells; GST; purchased SignalChem; host or cells: Sf-9 insect cells
Briefly: HDAC1/6 Enzyme Inhibitory Assay (HDAC-Glo I/II Assay kit), HDAC1. The following applies: 1 μM test compound, wells without enzyme = 100% inhibition; for inhibition at 1 µM: read-out: HDAC1 inhibitory rate (%) (1 μM). The procedure:
(§1) HDAC1/6 Enzyme Inhibitory Assay
(§2) HDAC1 enzyme and HDAC6 enzyme each prepared by transducing full length HDAC1 and HDAC6 genes into Sf-9 insect cells and purifying by GST affinity column were purchased from SignalChem. Using these enzymes, HDAC1 and/or HDAC6 enzyme inhibitory activities of the compound of the present invention were evaluated. Enzymes were used after preserved at −70° C. HDAC1 or HDAC6 enzyme inhibitory activity of the compound of the present invention was measured using HDAC-Glo™ I/II Assay kit (Promega) according to the following experimental method. The test compound diluted with assay buffer (24 mM Tris-HCl (pH 7.5), 1 mM MgCl2, 0.35 mM KCl, 135 mM NaCl, 0.6 mM Glutathione, 0.01% Tween-20) was added to a 384-well plate by each 2 μL. Then, HDAC1 or HDAC6 enzyme solution diluted with assay buffer was added thereto by each 4 μL, and the plate was incubated at room temperature for 60 min. After incubated, HDAC substrate-Developer solution prepared according to Promega protocol attached to the assay kit was added to the 384-well plate by each 2 μL, and the enzyme reaction was started. After reacting at room temperature for 20 min, luminescence level was measured using plate reader Envision (PerkinElmer). The inhibitory activity of each compound was calculated as a relative activity value when luminescence level in wells without enzyme is considered as 100% inhibition.

The target of the next assay is T3, HDAC6 enzyme (Homo sapiens, UniProt Q9UBN7).
T3 construct: transducing full length HDAC1 and HDAC6 genes into Sf-9 insect cells; GST; purchased SignalChem; host or cells: Sf-9 insect cells
T3 sequence (Q9UBN7 1-1215): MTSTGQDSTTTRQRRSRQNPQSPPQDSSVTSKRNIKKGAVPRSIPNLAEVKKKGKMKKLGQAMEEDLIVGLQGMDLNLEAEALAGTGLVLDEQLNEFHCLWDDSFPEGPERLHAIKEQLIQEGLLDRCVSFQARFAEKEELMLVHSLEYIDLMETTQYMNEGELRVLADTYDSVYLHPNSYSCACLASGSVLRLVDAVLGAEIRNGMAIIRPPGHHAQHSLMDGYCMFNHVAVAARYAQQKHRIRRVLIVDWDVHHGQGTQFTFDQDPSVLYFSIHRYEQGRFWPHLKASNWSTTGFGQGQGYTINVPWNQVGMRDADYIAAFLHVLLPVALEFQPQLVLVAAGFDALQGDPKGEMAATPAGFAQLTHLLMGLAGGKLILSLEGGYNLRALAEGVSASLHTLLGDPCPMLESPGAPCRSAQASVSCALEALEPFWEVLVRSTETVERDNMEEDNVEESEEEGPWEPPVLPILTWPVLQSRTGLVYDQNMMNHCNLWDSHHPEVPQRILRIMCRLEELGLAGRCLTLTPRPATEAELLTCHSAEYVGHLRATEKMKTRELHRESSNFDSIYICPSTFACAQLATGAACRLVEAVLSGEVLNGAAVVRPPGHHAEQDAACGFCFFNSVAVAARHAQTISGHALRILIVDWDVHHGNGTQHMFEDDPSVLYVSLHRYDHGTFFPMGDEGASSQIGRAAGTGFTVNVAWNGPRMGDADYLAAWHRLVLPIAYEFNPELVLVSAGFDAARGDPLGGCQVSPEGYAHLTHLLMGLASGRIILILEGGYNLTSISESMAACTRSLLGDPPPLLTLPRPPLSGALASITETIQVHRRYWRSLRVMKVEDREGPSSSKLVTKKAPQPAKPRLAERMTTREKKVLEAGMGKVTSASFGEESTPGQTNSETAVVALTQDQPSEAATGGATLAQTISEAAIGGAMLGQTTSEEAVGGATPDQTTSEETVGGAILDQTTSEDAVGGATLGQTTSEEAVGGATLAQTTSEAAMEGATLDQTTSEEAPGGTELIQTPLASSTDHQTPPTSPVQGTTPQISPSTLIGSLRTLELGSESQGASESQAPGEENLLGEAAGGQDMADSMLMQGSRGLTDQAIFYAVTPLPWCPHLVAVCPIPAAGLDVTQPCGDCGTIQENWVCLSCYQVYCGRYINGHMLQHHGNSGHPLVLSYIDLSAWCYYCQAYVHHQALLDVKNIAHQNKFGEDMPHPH
Briefly: HDAC1/6 Enzyme Inhibitory Assay (HDAC-Glo I/II Assay kit), HDAC6. The conditions noted are these: 1 μM test compound, wells without enzyme = 100% inhibition; for inhibition at 1 µM: read-out: HDAC6 inhibitory rate (%) (1 μM). The procedure:
as §1, §2

T1 sequence (Q9UKV0 whole entry, species assumed): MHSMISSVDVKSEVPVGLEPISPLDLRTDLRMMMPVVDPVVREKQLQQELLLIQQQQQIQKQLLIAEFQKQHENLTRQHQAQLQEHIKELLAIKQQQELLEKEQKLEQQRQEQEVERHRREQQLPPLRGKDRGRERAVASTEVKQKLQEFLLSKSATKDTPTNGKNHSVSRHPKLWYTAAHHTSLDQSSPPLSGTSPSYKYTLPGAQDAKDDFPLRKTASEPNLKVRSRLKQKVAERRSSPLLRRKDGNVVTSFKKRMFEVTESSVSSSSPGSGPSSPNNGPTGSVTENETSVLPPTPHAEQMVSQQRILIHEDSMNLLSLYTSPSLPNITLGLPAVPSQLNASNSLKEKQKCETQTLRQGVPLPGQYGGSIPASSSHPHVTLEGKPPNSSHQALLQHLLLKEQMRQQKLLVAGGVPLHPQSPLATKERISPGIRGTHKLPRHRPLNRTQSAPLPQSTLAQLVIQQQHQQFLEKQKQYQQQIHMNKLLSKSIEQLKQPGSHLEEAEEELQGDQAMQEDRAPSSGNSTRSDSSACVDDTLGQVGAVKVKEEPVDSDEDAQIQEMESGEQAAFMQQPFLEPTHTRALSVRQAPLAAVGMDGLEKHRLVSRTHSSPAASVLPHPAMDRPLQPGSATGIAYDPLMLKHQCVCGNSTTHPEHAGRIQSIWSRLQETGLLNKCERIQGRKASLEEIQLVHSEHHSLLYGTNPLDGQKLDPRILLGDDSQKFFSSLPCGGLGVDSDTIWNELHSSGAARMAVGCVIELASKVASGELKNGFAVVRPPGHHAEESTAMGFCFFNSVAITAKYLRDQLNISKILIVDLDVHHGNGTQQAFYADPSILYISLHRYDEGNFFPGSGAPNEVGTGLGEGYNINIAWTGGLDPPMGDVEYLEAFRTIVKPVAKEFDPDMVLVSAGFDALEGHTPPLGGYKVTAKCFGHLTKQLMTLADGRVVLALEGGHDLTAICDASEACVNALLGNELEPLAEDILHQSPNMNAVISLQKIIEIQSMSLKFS
T2 sequence (Q13547 whole entry): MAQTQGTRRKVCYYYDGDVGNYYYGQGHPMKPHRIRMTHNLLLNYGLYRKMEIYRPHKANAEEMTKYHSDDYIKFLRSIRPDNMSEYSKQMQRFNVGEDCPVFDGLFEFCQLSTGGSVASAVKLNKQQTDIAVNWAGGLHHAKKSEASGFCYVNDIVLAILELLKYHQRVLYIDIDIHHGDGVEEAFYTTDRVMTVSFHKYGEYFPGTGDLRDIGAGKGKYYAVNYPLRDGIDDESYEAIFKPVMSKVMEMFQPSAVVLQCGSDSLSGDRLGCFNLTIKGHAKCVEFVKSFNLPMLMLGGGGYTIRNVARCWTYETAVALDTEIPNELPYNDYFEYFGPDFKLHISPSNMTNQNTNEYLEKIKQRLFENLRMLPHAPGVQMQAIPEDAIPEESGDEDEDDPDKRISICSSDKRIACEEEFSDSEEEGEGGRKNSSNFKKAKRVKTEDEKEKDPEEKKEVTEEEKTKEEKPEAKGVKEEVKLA

With `CC(C)(C)OC(=O)N1C[C@@H](N2Cc3ccc(-c4noc(C(F)(F)F)n4)cc3C2=O)[C@H](c2ccccc2)C1` (relative stereo) [Example 2, tert-butyl trans-3-(1-oxo-6-(5-(trifluoromethyl)-1,2,4-oxadiazol-3-yl)-1,3-dihydro-2H-isoindol-2-yl)-4-phenylpyrrolidine-1-carboxylate], the inhibition at 1 µM at HDAC9 enzyme was found to be 90%; at HDAC1 enzyme, 33%; at HDAC6 enzyme, 98%.
On the same counts, the results for `O=C1c2cc(-c3noc(C(F)(F)F)n3)ccc2CN1[C@@H]1CNC[C@H]1c1ccccc1` (relative stereo) [Example 3, trans-2-(4-phenylpyrrolidin-3-yl)-6-(5-(trifluoromethyl)-1,2,4-oxadiazol-3-yl)isoindolin-1-one] are 98%, 87% and 96%.
The matching figures for `CC(=O)N1C[C@@H](N2Cc3ccc(-c4noc(C(F)(F)F)n4)cc3C2=O)[C@H](c2ccccc2)C1` (relative stereo) [Example 4, trans-2-(1-acetyl-4-phenylpyrrolidin-3-yl)-6-(5-(trifluoromethyl)-1,2,4-oxadiazol-3-yl)isoindolin-1-one]: 96%, 69% and 99%.
For `O=C1c2cc(-c3noc(C(F)(F)F)n3)ccc2CN1[C@@H]1CCOC[C@H]1c1ccccc1` (relative stereo) [Example 5, trans-2-(3-phenyltetrahydro-2H-pyran-4-yl)-6-(5-(trifluoromethyl)-1,2,4-oxadiazol-3-yl)isoindolin-1-one], on HDAC9 enzyme (1 µM), the “HDAC9 inhibitory rate (%) (1 μM)” value stood at 95%. Also, the “HDAC1 inhibitory rate (%) (1 μM)” value on HDAC1 enzyme (1 µM) is given as 78%. Also, the “HDAC6 inhibitory rate (%) (1 μM)” value at HDAC6 enzyme worked out at 99%.
Consider `CC(C)(C)OC(=O)N[C@@H]1CCCC[C@H]1N1Cc2ccc(-c3noc(C(F)(F)F)n3)cc2C1=O` (relative stereo) [Example 6, tert-butyl trans-(2-(1-oxo-6-(5-(trifluoromethyl)-1,2,4-oxadiazol-3-yl)-1,3-dihydro-2H-isoindol-2-yl)cyclohexyl)carbamate], for which the inhibition at 1 µM came to 65% at HDAC9 enzyme, 9% on HDAC1 enzyme and 95% at HDAC6 enzyme.
In the case of `N[C@@H]1CCCC[C@H]1N1Cc2ccc(-c3noc(C(F)(F)F)n3)cc2C1=O` (relative stereo) [Example 7, trans-2-(2-aminocyclohexyl)-6-(5-(trifluoromethyl)-1,2,4-oxadiazol-3-yl)isoindolin-1-one], the inhibition at 1 µM on HDAC9 enzyme came to 72%; at HDAC1 enzyme, 6%; at HDAC6 enzyme, 76%.
For `CC(=O)N[C@@H]1CCCC[C@H]1N1Cc2ccc(-c3noc(C(F)(F)F)n3)cc2C1=O` (relative stereo) [Example 8, trans-N-(2-(1-oxo-6-(5-(trifluoromethyl)-1,2,4-oxadiazol-3-yl)-1,3-dihydro-2H-isoindol-2-yl)cyclohexyl)acetamide], the inhibition at 1 µM on HDAC9 enzyme was 43%; on HDAC1 enzyme, 10%; on HDAC6 enzyme, 98%.
With `O=C(N[C@@H]1CCCC[C@H]1N1Cc2ccc(-c3noc(C(F)(F)F)n3)cc2C1=O)c1ccccc1` (relative stereo) [Example 9, trans-N-(2-(1-oxo-6-(5-(trifluoromethyl)-1,2,4-oxadiazol-3-yl)-1,3-dihydro-2H-isoindol-2-yl)cyclohexyl)benzamide], the inhibition at 1 µM on HDAC9 enzyme was 89%; at HDAC1 enzyme, 54%; on HDAC6 enzyme, 97%.
On the same counts, the results for `O=C(c1ccccc1)N1C[C@@H](N2Cc3ccc(-c4noc(C(F)(F)F)n4)cc3C2=O)[C@H](c2ccccc2)C1` (relative stereo) [Example 10, trans-2-(1-benzoyl-4-phenylpyrrolidin-3-yl)-6-(5-(trifluoromethyl)-1,2,4-oxadiazol-3-yl)isoindolin-1-one] are 96%, 63% and 96%.
As for `O=C(C1CC1)N1C[C@@H](N2Cc3ccc(-c4noc(C(F)(F)F)n4)cc3C2=O)[C@H](c2ccccc2)C1` (relative stereo) [Example 11, trans-2-(1-(cyclopropylcarbonyl)-4-phenylpyrrolidin-3-yl)-6-(5-(trifluoromethyl)-1,2,4-oxadiazol-3-yl)isoindolin-1-one], the inhibition at 1 µM is 95% at HDAC9 enzyme, 70% at HDAC1 enzyme and 100% on HDAC6 enzyme.
With `O=C(N[C@@H]1CCCC[C@H]1N1Cc2ccc(-c3noc(C(F)(F)F)n3)cc2C1=O)C1CC1` (relative stereo) [Example 12, trans-N-(2-(1-oxo-6-(5-(trifluoromethyl)-1,2,4-oxadiazol-3-yl)-1,3-dihydro-2H-isoindol-2-yl)cyclohexyl)cyclopropanecarboxamide], the inhibition at 1 µM at HDAC9 enzyme worked out at 48%; on HDAC1 enzyme, 9%; at HDAC6 enzyme, 98%.
Consider `O=C1CCCN1[C@@H]1CCCC[C@H]1N1Cc2ccc(-c3noc(C(F)(F)F)n3)cc2C1=O` (relative stereo) [Example 18, trans-2-(2-(2-oxopyrrolidin-1-yl)cyclohexyl)-6-(5-(trifluoromethyl)-1,2,4-oxadiazol-3-yl)isoindolin-1-one], for which the inhibition at 1 µM on HDAC9 enzyme worked out at 47%; on HDAC6 enzyme it was 99%.
Turning to `O=C1c2ccc(-c3noc(C(F)(F)F)n3)cc2CN1c1ccccc1` [Example 1, 2-phenyl-5-(5-(trifluoromethyl)-1,2,4-oxadiazol-3-yl)isoindolin-1-one], the figures for the inhibition at 1 µM at HDAC9 enzyme and on HDAC6 enzyme were 55% and 8%, respectively.
As to `O=C1CCCN1[C@@H]1CCCC[C@H]1N1Cc2ccc(-c3noc(C(F)(F)F)n3)cc2C1=O` [Example 191, 2-((1R,2R)-2-(2-oxopyrrolidin-1-yl)cyclohexyl)-6-(5-(trifluoromethyl)-1,2,4-oxadiazol-3-yl)isoindolin-1-one], the inhibition at 1 µM was found to be 66% at HDAC9 enzyme and 99% at HDAC6 enzyme.
